Experimental data: PMC7479006, “Effect of high-fat diet on the pharmacokinetics and safety of flumatinib in healthy Chinese subjects” (Cancer Chemotherapy and Pharmacology, 2020)
Where two headings read alike, the source gives them in different places.

Assays:
[1] = Safety evaluation (adverse events, NCI CTCAE v4.03) after a single oral 400 mg dose of flumatinib mesylate; type: in vivo, human (healthy Chinese subjects); design: TEAE, Incidence rate / TEAE related to the study drug, Incidence rate / SAE related to the study drug, Incidence rate / TEAE related to death, Incidence rate / TEAE related to withdrawal, Incidence rate: unit not given here
Method: All subjects who participated in the study were included in the safety analysis. Safety was evaluated by vital signs, physical examination, ECG, laboratory examination, adverse events (AEs), and combined medication. All adverse events that occurred during the trial were classified into mild, moderate and severe levels based on NCI CTCAE v4.03.

[2] = Biopharmaceutics Classification System (BCS) class; type: physicochemical; conditions: based on the BCS Guidance of the year 2000
[3] = rats, oral administration, preclinical studies; cited from earlier work
[4] = beagles, oral administration, preclinical studies; cited from earlier work
[5] = preclinical studies; tissue drug concentration higher than plasma concentration; cited from earlier work
[6] = design: method as in PMID 20703259; conditions: doses in the range of 200–1000 mg; cited from earlier work
[7] = Pharmacokinetics of flumatinib, M1 and M3 in plasma after a single oral 400 mg dose of flumatinib mesylate tablets, fasting vs high-fat diet (LC-MS/MS, non-compartmental); conditions: for AUC0-∞ LSGM ratio high-fat diet/fasting (%) (90% CI) / AUC0–t LSGM ratio high-fat diet/fasting (%) (90% CI) / Cmax LSGM ratio high-fat diet/fasting (%) (90% CI): N = 11, single oral 400 mg; for AUC(0-inf) / AUC(0-t) / Cmax / MRT / Tmax / half-life: human, po, 400 mg; for Tmax: Tmax median(range)
Method: The subjects were randomized 24 h in advance in one of the two following groups. Group A: at least 10 h after fasting, oral flumatinib administration of 400 mg (2 tablets, day 1, first dose); the washout period was 14 days, half an hour after high-fat diet (timed from the start of diet) oral flumatinib administration of 400 mg (2 tablets, day 15,second dose). Subjects in group B followed the opposite administration sequence from those in group A. In groups A and B, the high-fat diet contained 800 ~ 1000Kcal (about 50% from fat) (meal composition is detailed Table 1).
Blood samples for pharmacokinetic (PK) evaluation were collected at 0 h before the initiation of dosing (pre-dose), and at 0.5, 1, 1.5, 2, 2.5, 3, 4, 5, 6, 8, 10, 12, 24, 48, 72, and 96 h after dosing. Blood samples were centrifuged at 2000g for 10 min at 4 ℃. Centrifugation was completed within 60 min after sample collection. The plasma was stored at − 70 °C for further analysis. Plasma concentrations of flumatinib and its main metabolites (M1 and M3) were determined using liquid chromatography-mass spectrometry (LC–MS/MS) [20].
Phoenix WinNonlin Version 7.0 (Pharsight Corporation, Sunnyvale, CA, USA) software was used to calculate the pharmacokinetic parameters (Tmax, Cmax, AUC0–t, AUC0–∞, t1/2, V/F, CL/F) of flumatinib and its main metabolites using a non-compartmental method (NCA module). Linear Up Log Down trapezoidal method was used for AUC calculation. The BE module of WinNonLin was used to analyze AUC0–t, AUC0–∞, and Cmax of flumatinib in fed and fasting states after logarithmic conversion. The treatment group (fasting, high-fat diet), the treatment sequence (A, B), and treatment phase were fixed effects in the model, and the subjects nested in the sequence were random effects. The adjusted mean difference (fasting/high-fat diet) and its 90% confidence interval estimated by the model, were taken as the negative number to obtain the corresponding PK parameter geometric mean ratio (postprandial/fasting), to estimate its 90% confidence interval, and to evaluate the effect of a high-fat diet on the pharmacokinetics of flumatinib.

[8] = Fasting, the first period (N = 6)
[9] = Fasting, the second period (N = 5)
[10] = High-fat diet, the first period (N = 6)
[11] = High-fat diet, the second period (N = 6)
[12] = Fasting (N = 11), mean ± SD, single oral 400 mg, listed as Flumatinib
[13] = High-fat diet (N = 12), mean ± SD, single oral 400 mg
[14] = High-fat diet (N = 12), mean ± SD, single oral 400 mg, listed as Flumatinib

## Cc1ncc(NC(=O)c2ccc(CN3CCN(C)CC3)c(C(F)(F)F)c2)cc1Nc1nccc(-c2cccnc2)n1 [flumatinib]
[1]; [8]
  SAE related to the study drug, Incidence rate: 0.0
  SAE related to the study drug, Number: 0
  SAE related to the study drug, Time: 0
  TEAE related to death, Incidence rate: 0.0
  TEAE related to death, Number: 0
  TEAE related to death, Time: 0
  TEAE related to the study drug, Incidence rate: 83.3
  TEAE related to the study drug, Number: 5
  TEAE related to the study drug, Time: 11
  TEAE related to withdrawal, Incidence rate: 0.0
  TEAE related to withdrawal, Number: 0
  TEAE related to withdrawal, Time: 0
  TEAE, Incidence rate: 100.0
  TEAE, Number: 6
  TEAE, Time: 14
[1]; [9]
  SAE related to the study drug, Incidence rate: 0.0
  SAE related to the study drug, Number: 0
  SAE related to the study drug, Time: 0
  TEAE related to death, Incidence rate: 0.0
  TEAE related to death, Number: 0
  TEAE related to death, Time: 0
  TEAE related to the study drug, Incidence rate: 60.0
  TEAE related to the study drug, Number: 3
  TEAE related to the study drug, Time: 4
  TEAE related to withdrawal, Incidence rate: 0.0
  TEAE related to withdrawal, Number: 0
  TEAE related to withdrawal, Time: 0
  TEAE, Incidence rate: 60.0
  TEAE, Number: 3
  TEAE, Time: 5
[1]; Fasting, total (N = 11)
  SAE related to the study drug, Incidence rate: 0.0
  SAE related to the study drug, Number: 0
  SAE related to the study drug, Time: 0
  TEAE related to death, Incidence rate: 0.0
  TEAE related to death, Number: 0
  TEAE related to death, Time: 0
  TEAE related to the study drug, Incidence rate: 72.7
  TEAE related to the study drug, Time: 15
  TEAE related to withdrawal, Incidence rate: 0.0
  TEAE related to withdrawal, Number: 0
  TEAE related to withdrawal, Time: 0
  TEAE, Incidence rate: 81.8
  TEAE, Time: 19
[1]; [10]
  SAE related to the study drug, Incidence rate: 0.0
  SAE related to the study drug, Number: 0
  SAE related to the study drug, Time: 0
  TEAE related to death, Incidence rate: 0.0
  TEAE related to death, Number: 0
  TEAE related to death, Time: 0
  TEAE related to the study drug, Incidence rate: 50.0
  TEAE related to the study drug, Number: 3
  TEAE related to the study drug, Time: 6
  TEAE related to withdrawal, Incidence rate: 16.7
  TEAE related to withdrawal, Number: 1
  TEAE related to withdrawal, Time: 1
  TEAE, Incidence rate: 100.0
  TEAE, Number: 6
  TEAE, Time: 18
[1]; [11]
  SAE related to the study drug, Incidence rate: 0.0
  SAE related to the study drug, Number: 0
  SAE related to the study drug, Time: 0
  TEAE related to death, Incidence rate: 0.0
  TEAE related to death, Number: 0
  TEAE related to death, Time: 0
  TEAE related to the study drug, Incidence rate: 66.7
  TEAE related to the study drug, Number: 4
  TEAE related to the study drug, Time: 6
  TEAE related to withdrawal, Incidence rate: 0.0
  TEAE related to withdrawal, Number: 0
  TEAE related to withdrawal, Time: 0
  TEAE, Incidence rate: 66.7
  TEAE, Number: 4
  TEAE, Time: 7
[1]; High-fat diet, total (N = 12)
  SAE related to the study drug, Incidence rate: 0.0
  SAE related to the study drug, Number: 0
  SAE related to the study drug, Time: 0
  TEAE related to death, Incidence rate: 0.0
  TEAE related to death, Number: 0
  TEAE related to death, Time: 0
  TEAE related to the study drug, Incidence rate: 58.3
  TEAE related to the study drug, Time: 12
  TEAE related to withdrawal, Incidence rate: 8.3
  TEAE related to withdrawal, Number: 1
  TEAE related to withdrawal, Time: 1
  TEAE, Incidence rate: 83.3
  TEAE, Time: 25
[1]; fasting group
  TEAE incidence: 81.8%
  TEAE related to the study drug, incidence: 72.7%
[1]; high-fat diet group
  TEAE incidence: 83.3%
  TEAE related to the study drug, incidence: 58.3%
[1]; single oral dose of 400 mg, fasting or high-fat diet
  Safety and tolerability: safe and well tolerated
[2]
  BCS class: BCS Class III
[3]
  Time to maximum blood concentration: about 5 h
[4]
  Time to maximum blood concentration: about 5 h
[5]
  Tissue distribution: widely distributed in tissues
[6]
  Dose relation of Cmax and AUC0–t: linearly related to doses
[7]; Fasting (N = 11), mean ± SD, single oral 400 mg
  CL/F: 399 ± 229 L/h
[7]; [12]
  CL/F: 661 ± 380 L/h
  V/F: 11,700 ± 5130 L
[7]; [13]
  CL/F: 661 ± 380 L/h
  V/F: 11700 ± 5130 L
[7]; [14]
  CL/F: 399 ± 229 L/h
  V/F: 8470 ± 4130 L
[7]
  AUC0-∞ LSGM ratio high-fat diet/fasting (%) (90% CI): 166.87%
  AUC0–t LSGM ratio high-fat diet/fasting (%) (90% CI): 167.43%
  Cmax LSGM ratio high-fat diet/fasting (%) (90% CI): 281.65%
[7]; listed as Flumatinib
  AUC0-∞ LSGM ratio high-fat diet/fasting (%) (90% CI): 167 (143, 194) %
  AUC0–t LSGM ratio high-fat diet/fasting (%) (90% CI): 167 (144, 195) %
  Cmax LSGM ratio high-fat diet/fasting (%) (90% CI): 282 (226, 351) %
[7]; plasma, AUC0-∞ (least-square geometric mean), Fasting (N = 11), food-effect analysis, single oral 400 mg
  AUC(0-inf): 710 ng·h/mL
[7]; plasma, AUC0-∞ (least-square geometric mean), High-fat diet (N = 11), food-effect analysis, single oral 400 mg
  AUC(0-inf): 1180 ng·h/mL
[7]; plasma, AUC0-∞, Fasting (N = 11), mean ± SD, single oral 400 mg
  AUC(0-inf): 847 ± 572 ng·h/mL
[7]; plasma, AUC0-∞, High-fat diet (N = 12), mean ± SD, single oral 400 mg
  AUC(0-inf): 1280 ± 586 ng·h/mL
[7]; plasma, AUC0–t (least-square geometric mean), Fasting (N = 11), food-effect analysis, single oral 400 mg
  AUC(0-t): 696 ng·h/mL
[7]; plasma, AUC0–t (least-square geometric mean), High-fat diet (N = 11), food-effect analysis, single oral 400 mg
  AUC(0-t): 1170 ng·h/mL
[7]; plasma, AUC0–t, Fasting (N = 11), mean ± SD, single oral 400 mg
  AUC(0-t): 832 ± 566 ng·h/mL
[7]; plasma, AUC0–t, High-fat diet (N = 12), mean ± SD, single oral 400 mg
  AUC(0-t): 1260 ± 582 ng·h/mL
[7]; plasma, Cmax (least-square geometric mean), Fasting (N = 11), food-effect analysis, single oral 400 mg
  Cmax: 43.7 ng/mL
[7]; plasma, Cmax (least-square geometric mean), High-fat diet (N = 11), food-effect analysis, single oral 400 mg
  Cmax: 123 ng/mL
[7]; plasma, Cmax, Fasting (N = 11), mean ± SD, single oral 400 mg
  Cmax: 50.7 ± 32.5 ng/mL
[7]; plasma, Cmax, High-fat diet (N = 12), mean ± SD, single oral 400 mg
  Cmax: 132 ± 54.5 ng/mL
[7]; plasma, Fasting (N = 11), mean ± SD, single oral 400 mg
  MRT: 17.2 ± 3.66 h
[7]; plasma, High-fat diet (N = 12), mean ± SD, single oral 400 mg
  MRT: 19.2 ± 3.37 h
[7]; plasma, Fasting (N = 11), single oral 400 mg
  Tmax: 2.5 h
[7]; plasma, High-fat diet (N = 12), single oral 400 mg
  Tmax: 3 h
[7]; plasma, t1/2, Fasting (N = 11), mean ± SD, single oral 400 mg
  half-life: 13.3 ± 2.52 h
[7]; plasma, t1/2, High-fat diet (N = 12), mean ± SD, single oral 400 mg
  half-life: 15.5 ± 4.67 h
[7]; single oral 400 mg
  Increase in the exposure when taken with food: 67%
[7]; single oral 400 mg, plasma
  Increase of AUC0–∞ after high-fat diet over fasted state: 1.6 fold
  Increase of Cmax after high-fat diet over fasted state: nearly tripled
